Measurements taken from ChEMBL document CHEMBL5465560, “Selectivity Literature for EUbOPEN Chemogenomic Library” (2024).

Legend:
[1] = molecular target: Proto-oncogene tyrosine-protein kinase ROS (Homo sapiens) (UniProt P08922); assay: Selectivity interaction (Millipore kinase profiler) EUB0000124b ROS1; details: at 10 µM
[2] = molecular target: Tyrosine-protein kinase JAK1 (Homo sapiens, UniProt P23458); assay: Selectivity interaction (Kinase panel (KiNativ target engagement assay in Jurkat cells)) EUB0001635a JAK1; assay type: cell-based; details: Selectivity number of off-targets 0.0, Selectivity number of targets 233.0, Source Knowledge https://www.sciencedirect.com/science/article/pii/S2451945619300674?via%3Dihub, at 1 µM
[3] = molecular target: T1, Serine/threonine-protein kinase TAO2 (Homo sapiens) (UniProt Q9UL54); assay: Selectivity interaction (ActivX KiNativ screen (kinase selectivity in THP-1 cell lysates)) EUB0000639a TAOK2; assay type: subcellular; details: lysate
T1 sequence (whole entry): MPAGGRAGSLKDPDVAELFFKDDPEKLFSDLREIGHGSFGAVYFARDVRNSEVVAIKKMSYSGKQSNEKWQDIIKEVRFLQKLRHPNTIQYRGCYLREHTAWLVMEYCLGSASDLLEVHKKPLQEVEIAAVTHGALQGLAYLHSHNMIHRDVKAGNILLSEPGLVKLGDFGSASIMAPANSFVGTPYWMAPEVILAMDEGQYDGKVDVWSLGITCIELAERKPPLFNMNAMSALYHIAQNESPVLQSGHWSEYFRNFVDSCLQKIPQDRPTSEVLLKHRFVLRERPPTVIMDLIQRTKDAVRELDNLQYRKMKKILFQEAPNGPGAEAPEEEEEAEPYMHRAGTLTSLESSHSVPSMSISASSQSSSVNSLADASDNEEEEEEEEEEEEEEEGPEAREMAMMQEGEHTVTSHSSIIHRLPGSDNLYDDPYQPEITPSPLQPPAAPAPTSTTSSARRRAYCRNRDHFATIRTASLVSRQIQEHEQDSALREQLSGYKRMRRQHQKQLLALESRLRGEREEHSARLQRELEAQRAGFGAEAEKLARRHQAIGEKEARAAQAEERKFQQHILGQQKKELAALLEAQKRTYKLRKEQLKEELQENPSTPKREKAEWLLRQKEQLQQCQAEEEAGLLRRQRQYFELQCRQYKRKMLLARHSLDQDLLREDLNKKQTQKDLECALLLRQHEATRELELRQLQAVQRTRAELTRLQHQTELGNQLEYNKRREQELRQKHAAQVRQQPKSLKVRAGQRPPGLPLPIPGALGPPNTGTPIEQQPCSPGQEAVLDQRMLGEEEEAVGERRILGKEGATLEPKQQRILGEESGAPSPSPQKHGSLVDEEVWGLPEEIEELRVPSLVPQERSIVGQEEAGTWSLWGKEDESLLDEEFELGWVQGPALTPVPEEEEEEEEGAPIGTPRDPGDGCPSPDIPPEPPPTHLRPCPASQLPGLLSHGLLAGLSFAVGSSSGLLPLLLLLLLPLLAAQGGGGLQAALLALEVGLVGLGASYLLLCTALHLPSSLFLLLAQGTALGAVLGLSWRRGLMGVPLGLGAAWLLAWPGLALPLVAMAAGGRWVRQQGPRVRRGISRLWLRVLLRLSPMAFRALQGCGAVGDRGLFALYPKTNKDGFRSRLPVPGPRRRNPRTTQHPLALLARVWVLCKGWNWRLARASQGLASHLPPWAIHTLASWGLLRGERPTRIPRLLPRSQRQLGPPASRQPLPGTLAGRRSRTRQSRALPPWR

[4] = molecular target: T2, Serine/threonine-protein kinase TAO3 (Homo sapiens) (UniProt Q9H2K8); assay: Selectivity interaction (KinomeScan (DiscoverX)) EUB0000655a TAOK3; details: at 10 µM
T2 sequence (whole entry): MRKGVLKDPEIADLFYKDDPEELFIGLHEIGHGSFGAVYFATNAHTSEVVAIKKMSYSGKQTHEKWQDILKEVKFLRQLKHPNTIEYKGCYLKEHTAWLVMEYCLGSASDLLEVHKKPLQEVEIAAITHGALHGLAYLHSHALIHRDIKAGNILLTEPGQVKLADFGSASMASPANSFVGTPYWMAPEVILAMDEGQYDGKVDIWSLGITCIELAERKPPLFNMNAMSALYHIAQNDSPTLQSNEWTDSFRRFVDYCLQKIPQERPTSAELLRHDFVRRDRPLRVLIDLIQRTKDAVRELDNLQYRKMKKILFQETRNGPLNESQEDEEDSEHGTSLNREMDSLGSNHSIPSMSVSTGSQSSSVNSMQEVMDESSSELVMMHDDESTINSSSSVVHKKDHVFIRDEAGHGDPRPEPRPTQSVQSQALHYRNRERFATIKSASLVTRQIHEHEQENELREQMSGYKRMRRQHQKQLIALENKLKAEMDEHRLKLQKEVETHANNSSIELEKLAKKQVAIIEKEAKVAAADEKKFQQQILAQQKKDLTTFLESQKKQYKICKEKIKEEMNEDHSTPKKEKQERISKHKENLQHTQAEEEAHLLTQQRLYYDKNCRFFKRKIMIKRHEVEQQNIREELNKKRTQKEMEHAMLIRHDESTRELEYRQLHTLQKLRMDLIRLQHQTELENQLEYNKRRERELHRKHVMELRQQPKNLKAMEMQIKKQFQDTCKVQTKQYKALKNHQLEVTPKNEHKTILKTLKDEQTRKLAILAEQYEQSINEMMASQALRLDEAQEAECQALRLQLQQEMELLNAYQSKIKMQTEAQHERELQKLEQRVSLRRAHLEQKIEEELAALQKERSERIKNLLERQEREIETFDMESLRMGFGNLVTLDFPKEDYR

[5] = molecular target: T2, Serine/threonine-protein kinase TAO3 (Homo sapiens); assay: Selectivity interaction (KinomeScan (DiscoverX)) EUB0000695a TAOK3; details: at 100 nM
[6] = molecular target: Tyrosine-protein kinase ABL2 (Homo sapiens, UniProt P42684); assay: Selectivity interaction (SelectScreen profiling (Invitrogen)) EUB0000607a ABL2; details: at 2 µM
Sequence of Tyrosine-protein kinase ABL2 (P42684 whole entry): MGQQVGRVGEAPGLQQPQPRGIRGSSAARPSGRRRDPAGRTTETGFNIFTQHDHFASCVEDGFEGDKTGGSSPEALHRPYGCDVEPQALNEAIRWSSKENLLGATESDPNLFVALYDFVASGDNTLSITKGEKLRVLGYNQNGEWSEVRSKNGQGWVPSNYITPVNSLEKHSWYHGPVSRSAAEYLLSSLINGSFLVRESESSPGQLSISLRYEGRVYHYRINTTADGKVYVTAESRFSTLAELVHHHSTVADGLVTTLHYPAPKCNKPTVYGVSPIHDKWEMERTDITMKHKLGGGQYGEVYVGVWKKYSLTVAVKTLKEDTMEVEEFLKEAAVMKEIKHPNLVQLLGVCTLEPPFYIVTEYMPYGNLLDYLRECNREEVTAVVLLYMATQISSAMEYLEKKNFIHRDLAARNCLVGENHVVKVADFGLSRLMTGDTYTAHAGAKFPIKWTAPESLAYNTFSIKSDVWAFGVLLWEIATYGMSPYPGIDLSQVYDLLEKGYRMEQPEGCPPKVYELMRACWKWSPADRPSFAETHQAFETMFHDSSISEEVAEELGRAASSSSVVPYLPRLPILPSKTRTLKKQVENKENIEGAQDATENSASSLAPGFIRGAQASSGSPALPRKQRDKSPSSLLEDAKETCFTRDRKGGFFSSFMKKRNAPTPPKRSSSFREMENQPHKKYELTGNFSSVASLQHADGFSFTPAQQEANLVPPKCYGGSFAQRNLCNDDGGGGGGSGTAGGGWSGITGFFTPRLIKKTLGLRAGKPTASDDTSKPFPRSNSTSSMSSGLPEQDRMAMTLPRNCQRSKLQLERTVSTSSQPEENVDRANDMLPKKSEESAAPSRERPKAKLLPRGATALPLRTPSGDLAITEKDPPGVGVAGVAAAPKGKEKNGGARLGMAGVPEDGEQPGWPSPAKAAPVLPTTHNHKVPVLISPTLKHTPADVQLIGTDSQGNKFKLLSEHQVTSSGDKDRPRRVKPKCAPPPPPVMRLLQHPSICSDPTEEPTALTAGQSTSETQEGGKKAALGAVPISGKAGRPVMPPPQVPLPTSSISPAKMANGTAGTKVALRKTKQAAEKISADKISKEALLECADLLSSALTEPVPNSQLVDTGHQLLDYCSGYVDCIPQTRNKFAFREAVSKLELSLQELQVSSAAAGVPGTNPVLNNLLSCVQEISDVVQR

[7] = molecular target: Insulin receptor-related protein (Homo sapiens) (UniProt P14616); assay: Selectivity interaction (Kinase panel (Z-LYTE Assay)) EUB0001632a INSRR; details: at 10 µM
Sequence of Insulin receptor-related protein (Homo sapiens) (P14616 27-742 limits assumed): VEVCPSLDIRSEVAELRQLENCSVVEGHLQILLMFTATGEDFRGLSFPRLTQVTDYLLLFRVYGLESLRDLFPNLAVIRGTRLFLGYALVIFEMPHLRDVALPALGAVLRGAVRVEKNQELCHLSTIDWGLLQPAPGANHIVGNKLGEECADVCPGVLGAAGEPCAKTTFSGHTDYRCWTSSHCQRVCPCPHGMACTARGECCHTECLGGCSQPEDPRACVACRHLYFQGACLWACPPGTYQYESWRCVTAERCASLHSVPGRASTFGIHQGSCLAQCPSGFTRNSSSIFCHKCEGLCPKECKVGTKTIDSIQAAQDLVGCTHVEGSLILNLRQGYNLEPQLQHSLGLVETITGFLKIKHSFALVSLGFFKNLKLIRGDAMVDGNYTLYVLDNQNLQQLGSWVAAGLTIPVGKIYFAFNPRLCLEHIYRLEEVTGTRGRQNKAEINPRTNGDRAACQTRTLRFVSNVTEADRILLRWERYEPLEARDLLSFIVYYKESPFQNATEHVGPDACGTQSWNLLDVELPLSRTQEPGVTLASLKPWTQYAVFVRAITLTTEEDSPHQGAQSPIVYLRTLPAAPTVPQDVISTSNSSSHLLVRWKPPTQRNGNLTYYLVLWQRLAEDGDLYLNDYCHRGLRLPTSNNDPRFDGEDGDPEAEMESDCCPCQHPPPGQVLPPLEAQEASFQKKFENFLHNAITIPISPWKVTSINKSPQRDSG
Sequence of Insulin receptor-related protein (Homo sapiens) (P14616 747-1297 limits assumed): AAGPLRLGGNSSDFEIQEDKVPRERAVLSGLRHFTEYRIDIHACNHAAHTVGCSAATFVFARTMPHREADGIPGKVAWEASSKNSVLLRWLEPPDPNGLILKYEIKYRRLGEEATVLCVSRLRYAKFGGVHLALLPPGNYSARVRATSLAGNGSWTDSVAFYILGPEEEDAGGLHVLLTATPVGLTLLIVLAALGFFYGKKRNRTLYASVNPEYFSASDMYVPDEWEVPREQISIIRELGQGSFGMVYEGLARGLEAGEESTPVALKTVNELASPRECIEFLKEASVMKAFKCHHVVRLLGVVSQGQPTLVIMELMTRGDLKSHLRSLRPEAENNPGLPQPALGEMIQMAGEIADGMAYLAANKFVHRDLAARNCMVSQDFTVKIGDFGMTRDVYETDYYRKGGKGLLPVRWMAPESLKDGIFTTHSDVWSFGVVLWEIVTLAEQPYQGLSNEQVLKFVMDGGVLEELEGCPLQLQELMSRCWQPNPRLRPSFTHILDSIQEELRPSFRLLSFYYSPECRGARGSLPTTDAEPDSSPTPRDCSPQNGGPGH

Sequence of Proto-oncogene tyrosine-protein kinase ROS (Homo sapiens) (P08922 whole entry): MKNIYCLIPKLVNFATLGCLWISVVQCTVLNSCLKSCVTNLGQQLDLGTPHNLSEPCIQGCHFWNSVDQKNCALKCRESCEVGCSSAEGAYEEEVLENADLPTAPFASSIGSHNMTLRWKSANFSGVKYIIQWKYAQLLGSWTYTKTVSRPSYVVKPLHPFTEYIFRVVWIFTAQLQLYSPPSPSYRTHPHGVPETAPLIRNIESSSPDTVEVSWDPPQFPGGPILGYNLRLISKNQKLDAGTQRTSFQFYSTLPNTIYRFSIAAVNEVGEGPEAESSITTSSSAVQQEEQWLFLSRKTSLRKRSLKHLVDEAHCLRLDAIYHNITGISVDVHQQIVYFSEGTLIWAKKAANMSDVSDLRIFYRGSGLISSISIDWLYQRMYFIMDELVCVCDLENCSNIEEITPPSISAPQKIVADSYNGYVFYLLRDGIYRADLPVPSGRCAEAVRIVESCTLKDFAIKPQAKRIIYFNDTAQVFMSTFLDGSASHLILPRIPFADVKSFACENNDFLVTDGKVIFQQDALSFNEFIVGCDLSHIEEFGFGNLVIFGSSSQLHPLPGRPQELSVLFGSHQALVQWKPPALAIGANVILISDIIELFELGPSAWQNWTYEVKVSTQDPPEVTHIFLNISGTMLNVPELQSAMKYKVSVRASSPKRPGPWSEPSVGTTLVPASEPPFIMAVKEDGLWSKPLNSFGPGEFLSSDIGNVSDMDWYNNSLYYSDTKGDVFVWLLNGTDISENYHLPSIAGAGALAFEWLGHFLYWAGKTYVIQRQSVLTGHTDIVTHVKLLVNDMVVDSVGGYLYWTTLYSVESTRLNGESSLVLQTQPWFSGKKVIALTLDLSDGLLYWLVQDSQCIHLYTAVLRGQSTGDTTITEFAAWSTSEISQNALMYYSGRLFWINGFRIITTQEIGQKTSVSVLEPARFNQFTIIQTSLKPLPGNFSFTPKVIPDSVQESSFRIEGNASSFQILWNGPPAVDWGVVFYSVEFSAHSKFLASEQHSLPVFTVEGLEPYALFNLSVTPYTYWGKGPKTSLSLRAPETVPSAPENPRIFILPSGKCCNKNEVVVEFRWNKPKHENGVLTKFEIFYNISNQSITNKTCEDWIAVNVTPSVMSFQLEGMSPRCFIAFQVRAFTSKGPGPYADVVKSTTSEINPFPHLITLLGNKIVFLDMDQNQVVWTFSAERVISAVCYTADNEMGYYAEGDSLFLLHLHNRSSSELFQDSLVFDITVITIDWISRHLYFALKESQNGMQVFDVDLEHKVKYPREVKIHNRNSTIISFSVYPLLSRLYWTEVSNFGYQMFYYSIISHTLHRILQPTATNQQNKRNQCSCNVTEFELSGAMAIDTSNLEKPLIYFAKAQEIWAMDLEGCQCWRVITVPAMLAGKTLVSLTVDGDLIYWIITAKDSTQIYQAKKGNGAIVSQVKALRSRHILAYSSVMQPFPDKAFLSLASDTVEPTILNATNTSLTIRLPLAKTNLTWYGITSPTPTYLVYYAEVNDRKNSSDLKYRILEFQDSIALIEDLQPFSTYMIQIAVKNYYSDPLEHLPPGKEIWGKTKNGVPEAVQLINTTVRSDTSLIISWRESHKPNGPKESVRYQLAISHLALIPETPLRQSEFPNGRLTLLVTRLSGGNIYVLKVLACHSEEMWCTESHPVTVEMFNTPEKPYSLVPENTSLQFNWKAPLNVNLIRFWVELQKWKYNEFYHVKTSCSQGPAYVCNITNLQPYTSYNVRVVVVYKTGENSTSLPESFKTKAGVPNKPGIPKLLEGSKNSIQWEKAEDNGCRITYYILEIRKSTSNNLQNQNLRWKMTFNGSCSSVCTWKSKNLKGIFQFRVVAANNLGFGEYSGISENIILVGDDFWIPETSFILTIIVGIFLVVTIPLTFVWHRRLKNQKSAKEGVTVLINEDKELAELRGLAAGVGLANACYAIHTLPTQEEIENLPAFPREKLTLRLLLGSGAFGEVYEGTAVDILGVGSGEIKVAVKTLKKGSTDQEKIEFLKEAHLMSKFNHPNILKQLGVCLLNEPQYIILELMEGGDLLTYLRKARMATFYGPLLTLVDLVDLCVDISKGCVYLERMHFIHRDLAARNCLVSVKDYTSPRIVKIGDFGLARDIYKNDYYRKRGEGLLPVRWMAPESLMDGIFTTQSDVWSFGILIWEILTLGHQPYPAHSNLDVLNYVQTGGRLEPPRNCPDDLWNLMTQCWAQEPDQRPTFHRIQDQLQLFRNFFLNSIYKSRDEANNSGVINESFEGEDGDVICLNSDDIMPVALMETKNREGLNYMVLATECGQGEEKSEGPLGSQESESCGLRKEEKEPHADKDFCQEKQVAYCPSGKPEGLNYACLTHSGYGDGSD

`CC(=O)Nc1cccc(-n2c(=O)n(C3CC3)c(=O)c3c(Nc4ccc(I)cc4F)n(C)c(=O)c(C)c32)c1` was tested, and the % of control [1] was 107%.

For `C=CC(=O)Nc1ccc(C(=O)Nc2[nH]nc3c2CN(C(=O)N[C@H](CN(C)C)c2ccccc2)C3(C)C)cc1`, the % of engagement [2] was 11.1%.

Compound `CC[C@@H]1[C@H](F)C(=O)N[C@@H]1COc1nccc2cc(C(N)=O)c(OC)cc12` [ZIMLOVISERTIB] has a % of inhibition ([3]; at 0.01 µM) of 17.1%, a % of inhibition ([3]; at 0.04 µM) of 2% and a % of inhibition ([3]; at 0.2 µM) of -6.6%. The % of inhibition ([3]; at 1 µM) was -12.9% and the % of inhibition ([3]; at 5 µM) was 16.2%.

`CN(C)CCOc1ccc(-c2nc(-c3ccncc3)c(-c3ccc4c(c3)CC/C4=N\O)[nH]2)cc1` gave a % of control [4] of 75%.

`Cc1cc(F)c(C(=O)Nc2cccc(-c3nncn3C(C)C)n2)cc1-n1cnc(C2CC2)c1` showed a % of control [5] of 100%.

Work on `CNC(=O)Nc1ccc(-c2nc(N3CC4CCC(C3)O4)c3cnn(C4CCC5(CC4)OCCO5)c3n2)cc1` yielded a % of inhibition [6] of 13%.

`Cn1cc(-n2cnc3c(NCc4nc5cc(Cl)c(Cl)cc5[nH]4)nc(N4CCOCC4)nc32)cn1` was tested, and the % of control [7] was 0.348%.
